# According to patent US20060135422A1, “Use of angiotensin receptor blockers (ARBs) to treat diseases associated with excess ACE” (priority 2003, published 2006):
# “Also recorded” adds a separate entry of the source. Like-named read-outs stand apart in the source and are kept apart here.
# Columns and labels:
# tACE = tACE (Homo sapiens, UniProt P12821); conditions: cited from earlier work
# [1] = cited from earlier work
# ACE [2] = target: T1, ACE (Homo sapiens, UniProt P12821); conditions: binding affinity, from [27]; cited from earlier work
# [3] = tested on: West Nile virus encephalitis; assay: case series: West Nile virus encephalitis treated with angiotensin II receptor blockade; assay type: in vivo, human; conditions: for clinical outcome: patient 8, person with chronic lymphocytic leukemia, intravenous enalapril then losartan 50 mg daily
# Procedure: Table 2. […] A person with past history of tremors was admitted with fever, stiff neck, severe confusion, and gross tremors to a hospital in Omaha, Nebr. one night. Their serum was positive for IgM reactive to West Nile virus. They were begun on olmesartan 20 mg daily. […] They were discharged home on olmesartan 20 mg daily. • 2. A person with hypertension treated with a beta-blocker/thiazide combination drug, was admitted to a hospital in Omaha, Nebr. with right leg paralysis and paresthesias and weakness in their left leg. Their serum was positive for IgM reactive to West Nile virus. They were begun on losartan 50 mg daily. […] A person with a history of seizures was admitted one night to a hospital in Omaha, Nebr. with a fever and a grand mal seizure. They had been taking olmesartan 20 mg daily for mild hypertension. Their serum was positive for IgM reactive to West Nile virus. […] Their usual dose of olmesartan 20 mg daily was resumed thereafter. […] A person was admitted with fever, stiff neck, and severe confusion to a hospital in Omaha, Nebr. Their serum was positive for IgM antibodies reactive to West Nile virus. They were begun on losartan 50 mg daily. […] A person was admitted with fever, stiff neck, and severe confusion to a hospital in Omaha, Nebr. Their serum was positive for IgM antibodies reactive to West Nile virus. They were begun on losartan 50 mg daily. […] A person was admitted with fever, stiff neck, and severe confusion to a hospital in Pueblo, CO. Their serum was positive for IgM antibodies reactive to West Nile virus. They were begun on losartan 50 mg daily. […] A person with chronic lymphocytic leukemia was admitted with fever and obtundation to a hospital in Pueblo, CO. Their serum was positive by EIA for West Nile virus antibodies. […] Head CT and MRI scans were negative.
# serum ACE = target: T2, serum ACE (Homo sapiens, UniProt P12821); conditions: cited from earlier work
# T2 construct: host or cells: serum
# ACE [4] = target: T1, ACE; conditions: cited from earlier work
# [5] = tested on: unresectable pancreatic cancer; assay: case report: unresectable pancreatic cancer, quinapril added; assay type: in vivo, human; conditions: person, 5-FU and Naitrexone since February 2002, quinapril (60 mg) since November 2002; median survival of similar patients less than 4 months
# chronic renal failure = conditions: clinical comparison, from [20]; cited from earlier work
# psoriasis = assay type: in vivo, human; conditions: one person with type II diabetes, quinapril 200 mg/day (2 mg/kg/day); could stop daily methotrexate 75 mg
# pulmonary hypertension = conditions: clinical comparison, from [20,22]; cited from earlier work
# [6] = assay type: in vivo, human; conditions: 40 mg po qhs; reduced from 98 mm Hg
# Procedure: Because many patients with an autoimmune disease such as alopecia greata, psoriasis, rheumatoid arthritis, multiple sclerosis, etc. are normotensive or even relatively hypotensive, an ACE inhibitor may not be the best choice for them. They might not be able to tolerate a sufficiently high dose of an ACE inhibitor, certainly any dose approaching 2 mg/kg/day. Instead, an AT1 receptor blocker appears to be effective at doses which cause minimal blood pressure (BP) reduction. […]
# alopecia areata = assay: case reports: alopecia areata treated with an ARB; assay type: in vivo, human
# [7] = pH 7.4, active moiety, calculated from [23]
# [8] = pH 7.4, active moiety, calculated from [24]
# [9] = patient 2, losartan 50 mg daily
# T1 sequence (P12821 30-1306): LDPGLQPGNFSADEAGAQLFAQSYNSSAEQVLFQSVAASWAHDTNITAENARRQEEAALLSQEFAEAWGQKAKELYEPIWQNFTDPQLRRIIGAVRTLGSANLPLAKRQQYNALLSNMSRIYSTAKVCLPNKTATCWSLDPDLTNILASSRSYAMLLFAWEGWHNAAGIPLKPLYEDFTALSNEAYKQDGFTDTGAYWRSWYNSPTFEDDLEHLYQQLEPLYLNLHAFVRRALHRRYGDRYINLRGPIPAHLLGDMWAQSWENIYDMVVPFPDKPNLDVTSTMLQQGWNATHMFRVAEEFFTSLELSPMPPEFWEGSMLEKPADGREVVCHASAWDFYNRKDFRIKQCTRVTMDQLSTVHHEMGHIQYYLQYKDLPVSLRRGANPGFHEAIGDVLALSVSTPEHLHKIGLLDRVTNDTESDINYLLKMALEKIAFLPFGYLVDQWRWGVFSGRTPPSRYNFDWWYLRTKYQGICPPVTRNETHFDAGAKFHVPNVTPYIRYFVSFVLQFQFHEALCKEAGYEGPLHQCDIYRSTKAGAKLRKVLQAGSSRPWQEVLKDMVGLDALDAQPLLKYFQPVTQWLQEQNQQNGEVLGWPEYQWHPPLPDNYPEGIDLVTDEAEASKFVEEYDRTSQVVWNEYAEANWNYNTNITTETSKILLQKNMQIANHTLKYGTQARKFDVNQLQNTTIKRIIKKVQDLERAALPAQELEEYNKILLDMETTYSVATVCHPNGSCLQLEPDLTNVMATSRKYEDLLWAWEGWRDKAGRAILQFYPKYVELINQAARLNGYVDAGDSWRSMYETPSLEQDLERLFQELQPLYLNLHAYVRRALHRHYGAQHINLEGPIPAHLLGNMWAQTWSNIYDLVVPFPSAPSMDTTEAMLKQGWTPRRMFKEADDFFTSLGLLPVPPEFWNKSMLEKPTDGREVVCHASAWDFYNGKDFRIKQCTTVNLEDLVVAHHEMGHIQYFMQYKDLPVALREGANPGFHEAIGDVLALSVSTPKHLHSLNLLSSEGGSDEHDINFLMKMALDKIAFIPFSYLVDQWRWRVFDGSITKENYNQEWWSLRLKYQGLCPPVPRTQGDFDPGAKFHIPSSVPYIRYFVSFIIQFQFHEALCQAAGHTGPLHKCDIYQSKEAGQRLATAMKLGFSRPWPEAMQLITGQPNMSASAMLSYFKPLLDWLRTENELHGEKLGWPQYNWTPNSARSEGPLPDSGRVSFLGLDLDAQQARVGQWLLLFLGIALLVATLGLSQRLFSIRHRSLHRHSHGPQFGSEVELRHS
# T2 sequence (P12821 30-1232): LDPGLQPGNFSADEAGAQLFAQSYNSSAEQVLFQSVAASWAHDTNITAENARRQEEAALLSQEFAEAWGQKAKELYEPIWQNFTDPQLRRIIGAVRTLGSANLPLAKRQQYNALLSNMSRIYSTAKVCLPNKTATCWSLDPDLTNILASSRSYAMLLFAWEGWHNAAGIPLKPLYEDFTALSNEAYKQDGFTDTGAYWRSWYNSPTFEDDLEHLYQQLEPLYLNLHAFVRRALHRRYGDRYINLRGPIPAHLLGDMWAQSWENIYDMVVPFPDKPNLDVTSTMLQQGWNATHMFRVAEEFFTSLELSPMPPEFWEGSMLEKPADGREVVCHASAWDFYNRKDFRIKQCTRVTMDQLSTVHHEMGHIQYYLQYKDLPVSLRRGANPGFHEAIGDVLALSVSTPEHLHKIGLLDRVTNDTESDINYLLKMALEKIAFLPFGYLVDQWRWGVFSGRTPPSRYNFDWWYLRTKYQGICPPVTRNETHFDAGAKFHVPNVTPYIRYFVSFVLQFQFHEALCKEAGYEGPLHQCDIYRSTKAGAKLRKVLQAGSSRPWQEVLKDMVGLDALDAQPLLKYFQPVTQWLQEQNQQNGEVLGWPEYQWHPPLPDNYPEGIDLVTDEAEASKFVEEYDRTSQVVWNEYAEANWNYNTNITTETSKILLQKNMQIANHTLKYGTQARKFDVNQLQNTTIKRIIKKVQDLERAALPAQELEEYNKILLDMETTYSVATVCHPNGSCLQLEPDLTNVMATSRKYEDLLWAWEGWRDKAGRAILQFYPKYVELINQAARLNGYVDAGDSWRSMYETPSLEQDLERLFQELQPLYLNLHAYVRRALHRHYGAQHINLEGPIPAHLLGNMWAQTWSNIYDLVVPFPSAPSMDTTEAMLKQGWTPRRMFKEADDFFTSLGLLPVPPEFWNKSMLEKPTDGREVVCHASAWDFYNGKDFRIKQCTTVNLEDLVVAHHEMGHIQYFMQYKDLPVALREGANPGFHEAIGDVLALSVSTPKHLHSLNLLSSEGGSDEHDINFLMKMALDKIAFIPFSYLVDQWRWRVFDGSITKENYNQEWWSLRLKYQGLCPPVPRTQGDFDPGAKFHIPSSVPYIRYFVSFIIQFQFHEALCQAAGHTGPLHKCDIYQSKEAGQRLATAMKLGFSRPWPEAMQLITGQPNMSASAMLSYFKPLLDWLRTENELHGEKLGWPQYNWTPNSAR
# tACE, sequence (P12821 other isoform, or with tags, fused parts or gaps): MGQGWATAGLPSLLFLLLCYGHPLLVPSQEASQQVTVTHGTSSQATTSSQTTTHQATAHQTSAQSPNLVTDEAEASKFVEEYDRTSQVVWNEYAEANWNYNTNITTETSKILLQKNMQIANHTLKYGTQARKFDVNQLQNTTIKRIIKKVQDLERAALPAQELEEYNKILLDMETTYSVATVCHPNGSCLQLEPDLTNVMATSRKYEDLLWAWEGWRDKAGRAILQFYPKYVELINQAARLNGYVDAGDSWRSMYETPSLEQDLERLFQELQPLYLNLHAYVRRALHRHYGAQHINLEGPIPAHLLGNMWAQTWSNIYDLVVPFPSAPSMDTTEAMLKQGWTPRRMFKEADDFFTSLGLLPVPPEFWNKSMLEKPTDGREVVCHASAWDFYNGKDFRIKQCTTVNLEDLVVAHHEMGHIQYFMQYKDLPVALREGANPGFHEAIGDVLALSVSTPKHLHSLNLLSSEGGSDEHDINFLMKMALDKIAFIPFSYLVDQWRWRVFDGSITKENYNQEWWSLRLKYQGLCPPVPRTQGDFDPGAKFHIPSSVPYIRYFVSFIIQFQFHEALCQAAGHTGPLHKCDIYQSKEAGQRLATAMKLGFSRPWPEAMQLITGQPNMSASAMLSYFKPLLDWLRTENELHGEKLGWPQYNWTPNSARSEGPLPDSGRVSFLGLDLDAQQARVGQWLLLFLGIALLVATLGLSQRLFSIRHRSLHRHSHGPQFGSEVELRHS
structure (smiles),measurement,setting,value
O[C@H](CS)[C@H](O)CS (racemic) [dithiothreitol],inhibition of tACE's activity,tACE,78%
O=C(O)CN1C(=O)[C@@H](N[C@@H](CCc2ccccc2)C(=O)O)CCc2ccccc21 [Benazeprilat],P(octanol:water),[1]; [7],3.0
C[C@H](CS)C(=O)N1CCC[C@H]1C(=O)O [Captopril],P(octanol:water),[1]; [7],0.01
same,P(octanol:water),[1]; [8],0.004
NCCCC[C@H](OP(=O)(O)CCCCc1ccccc1)C(=O)N1CCC[C@H]1C(=O)O [Ceronapril],P(octanol:water),[1]; [8],<0.001
O=C(O)[C@H](CCc1ccccc1)N[C@H]1CCCN2CCC[C@@H](C(=O)O)N2C1=O [Cilazaprilat],P(octanol:water),[1]; [7],1.7
O=C(O)[C@@H]1C[C@@H](C2CCCCC2)CN1C(=O)CP(=O)(O)CCCCc1ccccc1 [Fosinoprilat],P(octanol:water),[1]; [8],0.33
CCC[C@H](N[C@@H](C)C(=O)N1[C@H](C(=O)O)C[C@@H]2CCCC[C@@H]21)C(=O)O [Perindoprilat],P(octanol:water),[1]; [7],0.44
C[C@H](N[C@@H](CCc1ccccc1)C(=O)O)C(=O)N1Cc2ccccc2C[C@H]1C(=O)O [Quinaprilat],P(octanol:water),[1]; pH 7.4,6.6
C[C@H](N[C@@H](CCc1ccccc1)C(=O)O)C(=O)N1[C@H](C(=O)O)C[C@@H]2CCC[C@@H]21 [Ramiprilat],IC50,ACE [2],0.67 nM
same,P(octanol:water),[1]; [7],2.6
same,P(octanol:water),[1]; [8],0.011
C[C@H](N[C@@H](CCc1ccccc1)C(=O)O)C(=O)N1[C@H](C(=O)O)C[C@H]2CCCC[C@@H]21 [Trandolaprilat],P(octanol:water),[1]; [7],10.47
C[C@H](CS)C(=O)N1C[C@@H](Sc2ccccc2)C[C@H]1C(=O)O [Zofenoprilat],P(octanol:water),[1]; [8],0.22
CCOC(=O)[C@H](CCc1ccccc1)N[C@@H](C)C(=O)N1CCC[C@H]1C(=O)O [enalapril],clinical outcome,[3],remained in coma
same,inhibition of serum ACE activity,serum ACE,about 50%
same,off time,ACE [4],4 h
CCCCc1nc(Cl)c(CO)n1Cc1ccc(-c2ccccc2-c2nn[nH]n2)cc1 [losartan],right leg paralysis,[3]; [9],no change
same,time until paresthesias and weakness in left leg stopped,[3]; [9],1 to 2 days
same,time to full recovery,"[3]; patient 3, losartan 50 mg twice in first 24 hr, usual olmesartan 20 mg daily resumed thereafter",≤ 12 h
same,time until meningoencephalitis disappeared,"[3]; patient 4, losartan 50 mg daily",≤ 48 h
same,time until meningoencephalitis disappeared,"[3]; patient 5, losartan 50 mg daily",≤ 48 h
same,time until meningoencephalitis disappeared,"[3]; patient 6, losartan 50 mg daily",≤ 24 h
same,time until disappearance of residual weakness and fatigue,"[3]; patient 7, one month after meningoencephalitis, losartan 50 mg daily",≤ 24 h
same,clinical outcome,[3],remained in coma
CCOC(=O)[C@H](CCc1ccccc1)N[C@@H](C)C(=O)N1Cc2ccccc2C[C@H]1C(=O)O [quinapril],survival,[5],"still alive in November, 2003"
same,effectiveness at delaying the progression of chronic renal failure,chronic renal failure,more effective than ramipril
same,response of psoriasis,psoriasis,put the patient's psoriasis into remission; also recorded: responded dramatically
same,off time,ACE [4],24 h
CCOC(=O)[C@H](CCc1ccccc1)N[C@@H](C)C(=O)N1[C@H](C(=O)O)C[C@@H]2CCC[C@@H]21 [ramipril],effectiveness at lowering pulmonary hypertension,pulmonary hypertension,more effective at lowering pulmonary hypertension than enlapril
same,inhibition of serum ACE activity,serum ACE; from [20],~100%
same,off time,ACE [4]; from [28-30],24 h
CCCCC(=O)N(Cc1ccc(-c2ccccc2-c2nnn[nH]2)cc1)[C@H](C(=O)O)C(C)C [valsartan],systolic BP on treatment,[6],90 mm Hg
same,time until scalp hair loss resumed after stopping the ARB,"alopecia areata; ARB stopped after 1 week, same patient",3 to 4 days
same,time until hair loss stopped after starting the ARB,"alopecia areata; active alopecia areata, child, 40 mg po qhs, n=1",≤ 36 h
same,time for valsartan to have an effect,"alopecia areata; more chronic form of alopecia areata, n=1",more than 5 days
